Columns and labels:
[1] = test system: C2C12 myotubes; test: Mitochondrial respiration in C2C12 myotubes (Seahorse XF96, fatty acid oxidation analysis); assay type: cell-based, Mouse; conditions: 50 uM, 24 hours (FIG. 1)
Protocol: A combined treatment of urolithin A and trigonelline was performed and mitochondrial respiration was measured in rodent skeletal muscle cells.
Fatty acid oxidation analysis on C2C12 myotubes was measured with a Seahorse XF96 extracellular flux analyzer. C2C12s were seeded at 8,000 cells/well in an XF96 cell culture microplate. Once cells reached confluence, they were differentiated with DMEM (Gibco, 31966047) supplemented with 2% Horse serum, 1% PenStrep and 1% Hepes for 5 days. Cells were treated with UA 50 uM and Trigonelline 50 uM (Sigma, T5509) for 24 hours in substrate-limited media (Gibco, A1443001) supplemented with 0.5 mM glucose, 1 mM glutamine, 1% Oleic acid and 0.5 mM L-Carnitine. Maximal respiration was monitored by injection of 3 μM FCCP in the cartridge. Prior to the assay, cells were incubated in a Fatty acid oxidation medium (111 mM NaCl, 4.7 mM KCl, 1.25 mM CaCl2, 2 mM MgSO4, 1.2 mM NaH2PO4, 5 mM L-Carnitine, 5 mM Hepes, 2.5 mM Glucose) for 20 min, solution must be adjusted to pH 7.4 at 37 °C.

[2] = test system: HSMM human primary skeletal muscle myoblasts; test: Mitochondrial respiration (oxygen consumption rate) in human primary skeletal muscle myoblasts HSMM (Seahorse XF96); assay type: cell-based; conditions: 24 hours, normalized over cellular DNA content
Protocol: Cells were treated as indicated with Urolithin A (UA) 6.25 uM and trigonelline (Trig) 500 uM, alone or in combination. DMSO 0.1% was used as control. Data are expressed as mean+/−SD. One-Way ANOVA, * p.val.<0.05.
A combined treatment of urolithin A and trigonelline was performed and mitochondrial respiration was measured in human primary skeletal muscle cells.
Mitochondrial respiration was measured as oxygen consumption rate on HSMM (LZ-CC-2580, Lonza), human primary skeletal muscle myoblasts was measured with a Seahorse XF96 extracellular flux analyzer. HSMMs were seeded at 3,500 cells/well in an XF96 cell culture microplate and cultured at 37 °C in a humidified atmosphere of 5% C02 in SKM-M Growth medium (AMSbio). […] Oxygen consumption rate was measured in Krebs Cycle medium (135 mM NaCl, KCL 3.6 mM, 0.5 mM NaH2PO4, 0.5 mM MgSO4, 10 mM HEPES, 5 mM NaHCO3) supplemented with 10 mM Glucose, 10 mM pyruvate and 2 mM Glutamine. Maximal respiration was monitored by injection of 6 μM FCCP in the cartridge. To normalize for differences in cell number across well, cellular DNA content was measured in the same microplate using the CyQuant NF kit (Thermofisher, C35006), following the manufacturer's instructions. Normalized mitochondrial respiration was then calculated as ratio between oxygen consumption rate and DNA content and expressed as fold change over the DMSO of the basal condition.

[3] = test system: C2C12 muscle cell line; conditions: Ryu, D. et al. Nature Medicine 2016, 22, 879; cited from earlier work
[4] = test system: HSMM myotubes; conditions: only at 1000 uM, 72 h, with simultaneous blocking of NAD+ salvage pathway with FK866; cited from earlier work
[5] = test system: muscle mass; conditions: in vivo; cited from earlier work
[6] = test system: human cells; conditions: at this dose (50 uM); FIG. 1 of US 2022/0241259 A1; cited from earlier work
[7] = test system: rodent tissues; conditions: in vivo; cited from earlier work
[8] = test system: skeletal muscle cells; conditions: cited from earlier work
[9] = test system: C. elegans; conditions: in vivo; cited from earlier work

O=c1oc2cc(O)ccc2c2ccc(O)cc12 [Urolithin A, urolithin A]
mitochondrial respiration ([1]; urolithin A alone): induced mitochondrial respiration | mitochondrial respiration ([2]; urolithin A alone, 6.25 uM): induced mitochondrial respiration | mitochondrial respiration [3]: induced mitochondrial respiration as shown previously in the C2C12 muscle cell line

C[n+]1cccc(C(=O)[O-])c1 [trigonelline]
mitochondrial respiration ([1]; trigonelline alone): Mitochondrial respiration was also increased | mitochondrial respiration in HSMM myotubes [4]: improvement in mitochondrial respiration | mitochondrial respiration ([2]; trigonelline alone, 500 uM): Mitochondrial respiration was also increased | muscle mass in rodents [5]: induce muscle mass | biological effect on NAD production in human cells [6]: not shown to have a significant biological effect on NAD production | NAD^+ levels in rodent tissues [7]: help to increase NAD^+ levels | NAD^+ levels in skeletal muscle cells [8]: help to increase NAD^+ levels | lifespan in C. elegans models [9]: increase lifespan

Source: patent US20260355147A1, “COMPOSITIONS COMPRISING TRIGONELLINE AND A UROLITHIN” (Amazentis SA, priority 2023, published 2026)
